Key:
[1] = Thermal stability to iodine loss during the deprotection reaction; type: physicochemical; conditions: during the deprotection reaction (6M HCl, 100° C., 10 minutes), compared to MIBG
Method: The residue in the reactor vial was dissolved in 200 μl of 6M HCl, and heated at 100° C. for 10 minutes. The solution was allowed to cool for one minute and neutralized with 120 μl of 10M NaOH. A reverse phase (C18) sep pak was rinsed with ethanol (10 mL) and water (10 mL) and blown dry. The neutralized solution ([…]) was passed through the sep pak and the sep pak was rinsed with 2 mL of water (to elute any remaining salts) and blown dry. Ethanol (0.8 mL) was passed through the sep pak to elute the radiolabeled benzylguanidine derivative. Ethanol was removed using a stream of nitrogen before the material was purified by HPLC.
124I-2,4-difluoro-3-iodobenzylguanidine was prepared in 80±6% radiochemical yield (n=4) at the 1-2 mCi scale using the procedure outlined in Example 26. Following isolation, the product was >99% chemically and radiochemically pure, as assayed by HPLC.

[2] = Imaging (PET/CT) and biodistribution study of 124I-MIBG prepared using two methods; type: in vivo; conditions: male Sprague-Dawley rats, single intravenous dose, PET/CT scans at 1, 4, and 24 hours post injection; diaryliodonium salt precursor preparation vs conventional method (stannylated resin precursor)
Method: To determine whether the method of preparation of MIBG affected the biodistribution of the compound, high specific activity ^124I-MIBG was prepared using the diaryliodonium salt method (Example 27) and the conventional stannylated resin precursor; these compounds were imaged in rodent models.
Eight male Sprague-Dawley rats were used for the study. Upon arrival at the laboratory, each animal was inspected, uniquely identified with the animal number written on their tails, and weighed. The animals were judged to be in good health and were immediately placed in acclimation. Animals were between 6-14 weeks of age and weighed 440.5±36.4 g.
After a single intravenous dose of ^124I-MIBG prepared by diaryliodonium salt precursor, or ^124I-MIBG prepared with conventional method, Sprague-Dawley rats were given PET/CT scans at 1, 4, and 24 hours post injection of radiotracer. Biodistribution analysis was performed to quantify the amount of uptake in each animal's heart, liver, kidneys, thyroid, quadriceps muscle, and whole body as a function of time. Data is presented in units of μCi, μCi/mm3, % ID, and % ID/g. The radiochemical purity of all compounds as assessed by HPLC was >97% within an hour of administration.

Structure (SMILES)	thermal stability to iodine loss [1]	biodistribution (uptake in heart, liver, kidneys, thyroid, quadriceps muscle, and whole body as a function of time) [2]
N=C(N)NCc1ccc(F)c([124I])c1F [124I-2,4-difluoro-3-iodobenzylguanidine, ^124I-2,4-difluoro-3-iodobenzylguanidine]	greater thermal stability to iodine loss	
NC(N)=NCc1cccc([124I])c1 [^124I-MIBG]		no noted qualitative or quantitative difference
